The record followed here is patent US20250382305A1 (PTC THERAPEUTICS, INC., priority 2022, published 2025).

Experiment [1] deals with Total ATXN3 (tATXN3) protein. The experiment can be described thus: Endogenous Total ATXN3 (tATXN3) Protein Assay (MSD immunoassay of cell lysates). The format is cell-based. The note with it: average IC50, total ATXN3 protein in cell lysate after 48 h with compound (Table 1). An outline of the steps:
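By electrochemiluminescent MSD sandwich immunoassay (mouse monoclonal capture, rabbit monoclonal and SULFO-TAG anti-rabbit detection), endogenous ATXN3 was quantified in lysates of cells treated 48 h at 37° C at 10,000 cells/well. Treatment used a 7-point 3.16-fold duplicate dilution series, with average IC50 grouped into star categories.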

The next experiment deals with ATXN3 pre-mRNA. The experiment can be described thus: RT-qPCR Assay to Quantify Exon 4 Skipping in ATXN3 pre-mRNA in Cells. The conditions noted are these: percent exon 4 skipping in ATXN3 pre-mRNA, RT-qPCR of cell lysates; average IC50. It counts as cell-based. An outline of the steps:
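IC50 derives from a dose-response fit of percent exon 4 skipping, quantified by RT-qPCR on crude lysates. Compounds tested as 7-point 3.16-fold dilutions in duplicate; cells (10,000/well) were exposed for 24 h at 37 °C before lysis.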
(Quantitative PCR measures a nucleic acid by following its amplification.)

Usually IC50 stands for the point on the concentration scale where inhibition reaches its midpoint. With “2-((3R,4S)-4-aminotetrahydro-2H-pyran-3-yl)-3-bromo-5-chloro-N-(thiophen-2-ylmethyl)thieno[3,2-b]pyridin-7-amine and 2-((3S,4R)-4-aminotetrahydro-2H-pyran-3-yl)-3-bromo-5-chloro-N-(thiophen-2-ylmethyl)thieno[3,2-b]pyridin-7-amine [Compound 204]”, the IC50 (in experiment [1]; in the experiment with ATXN3 pre-mRNA) was at most 30 nM each time.
As for “2-((4R,5S)-5-aminoazepan-4-yl)-3-bromo-5-chloro-N-(thiophen-2-ylmethyl)thieno[3,2-b]pyridin-7-amine and 2-((4S,5S)-5-aminoazepan-4-yl)-3-bromo-5-chloro-N-(thiophen-2-ylmethyl)thieno[3,2-b]pyridin-7-amine [Compound 148]”, the IC50 (in experiment [1]; with ATXN3 pre-mRNA) was above 1000 nM each time.
Consider “3-bromo-5-chloro-2-((1R,2R)-2-(methylamino)cyclohexyl)-N-(thiophen-2-ylmethyl)thieno[3,2-b]pyridin-7-amine and 3-bromo-5-chloro-2-((1S,2S)-2-(methylamino)cyclohexyl)-N-(thiophen-2-ylmethyl)thieno[3,2-b]pyridin-7-amine [Compound 375]”, for which the IC50 (in experiment [1]; in the experiment with ATXN3 pre-mRNA) was 30 to 300 nM each time.
Take “3-bromo-5-chloro-2-[(2R,3S)-3-aminotetrahydropyran-2-yl]-N-(2-thienylmethyl)thieno[3,2-b]pyridin-7-amine and 3-bromo-5-chloro-2-[(2S,3R)-3-aminotetrahydropyran-2-yl]-N-(2-thienylmethyl)thieno[3,2-b]pyridin-7-amine [Compound 20]”: the IC50 (in experiment [1]; in the experiment with ATXN3 pre-mRNA) was 30 to 300 nM each time.
As for “4-(2-((1R,6R)-6-aminocyclohex-3-en-1-yl)-5-chloro-7-((thiophen-2-ylmethyl)amino)thieno[3,2-b]pyridin-3-yl)but-3-yn-1-ol and 4-(2-((1S,6S)-6-aminocyclohex-3-en-1-yl)-5-chloro-7-((thiophen-2-ylmethyl)amino)thieno[3,2-b]pyridin-3-yl)but-3-yn-1-ol [Compound 177]”, the IC50 (in experiment [1]; with ATXN3 pre-mRNA) was at most 30 nM each time.
Take “5-(2-chloro-6-((1R,6R)-6-(methylamino)cyclohex-3-en-1-yl)-4-((thiophen-2-ylmethyl)amino)thieno[3,2-d]pyrimidin-7-yl)pent-4-yn-1-ol and 5-(2-chloro-6-((1S,6S)-6-(methylamino)cyclohex-3-en-1-yl)-4-((thiophen-2-ylmethyl)amino)thieno[3,2-d]pyrimidin-7-yl)pent-4-yn-1-ol [Compound 293]”: the IC50 (in experiment [1]; in the experiment on ATXN3 pre-mRNA) was 30 to 300 nM throughout.
In the case of “5-(5-chloro-2-((1R,6R)-6-(dimethylamino)cyclohex-3-en-1-yl)-7-((thiophen-2-ylmethyl)amino)thieno[3,2-b]pyridin-3-yl)pent-4-yn-1-ol and 5-(5-chloro-2-((1S,6S)-6-(dimethylamino)cyclohex-3-en-1-yl)-7-((thiophen-2-ylmethyl)amino)thieno[3,2-b]pyridin-3-yl)pent-4-yn-1-ol [Compound 454]”, the IC50 (in experiment [1]; with ATXN3 pre-mRNA) was 300 to 1000 nM throughout.
Regarding “5-(5-chloro-2-((1R,6R)-6-(methylamino)cyclohex-3-en-1-yl)-7-((thiophen-2-ylmethyl)amino)thieno[3,2-b]pyridin-3-yl)pent-4-yn-1-ol and 5-(5-chloro-2-((1S,6S)-6-(methylamino)cyclohex-3-en-1-yl)-7-((thiophen-2-ylmethyl)amino)thieno[3,2-b]pyridin-3-yl)pent-4-yn-1-ol [Compound 288]”, the IC50 (in experiment [1]; in the experiment with ATXN3 pre-mRNA) was 30 to 300 nM throughout.
Take “5-(5-chloro-2-((2R,3R)-3-(methylamino)tetrahydro-2H-pyran-2-yl)-7-((thiophen-2-ylmethyl)amino)thieno[3,2-b]pyridin-3-yl)pent-4-yn-1-ol and 5-(5-chloro-2-((2S,3S)-3-(methylamino)tetrahydro-2H-pyran-2-yl)-7-((thiophen-2-ylmethyl)amino)thieno[3,2-b]pyridin-3-yl)pent-4-yn-1-ol [Compound 309]”: the IC50 (in experiment [1]; with ATXN3 pre-mRNA) was 30 to 300 nM throughout.
For “5-chloro-3-iodo-2-((1R,6R)-6-(methylamino)cyclohex-3-en-1-yl)-N-(thiophen-2-ylmethyl)thieno[3,2-b]pyridin-7-amine and 5-chloro-3-iodo-2-((1S,6S)-6-(methylamino)cyclohex-3-en-1-yl)-N-(thiophen-2-ylmethyl)thieno[3,2-b]pyridin-7-amine [Compound 387]”, the IC50 fell in the range of 30 to 300 nM in experiment [1] and 300 to 1000 nM with ATXN3 pre-mRNA.
For “6-((1R,2R)-2-aminocyclohexyl)-N-benzyl-2-chloro-7-methylthieno[3,2-d]pyrimidin-4-amine or 6-((1S,2S)-2-aminocyclohexyl)-N-benzyl-2-chloro-7-methylthieno[3,2-d]pyrimidin-4-amine [Compound 43]” the same measures were above 1000 nM and above 1000 nM.
The like results for “6-((1R,2R)-2-aminocyclohexyl)-N-benzyl-2-chloro-7-methylthieno[3,2-d]pyrimidin-4-amine or 6-((1S,2S)-2-aminocyclohexyl)-N-benzyl-2-chloro-7-methylthieno[3,2-d]pyrimidin-4-amine [Compound 48]” were, in that order, 30 to 300 nM and 30 to 300 nM.
The like results for “6-((1R,6R)-6-aminocyclohex-3-en-1-yl-2,2,3,4,5,5-d6)-2-chloro-N-(furan-2-ylmethyl)-7-methylthieno[3,2-d]pyrimidin-4-amine and 6-((1S,6S)-6-aminocyclohex-3-en-1-yl-2,2,3,4,5,5-d6)-2-chloro-N-(furan-2-ylmethyl)-7-methylthieno[3,2-d]pyrimidin-4-amine [Compound 297]” were, in that order, 30 to 300 nM and 30 to 300 nM.
In the case of “6-((1R,6R)-6-aminocyclohex-3-en-1-yl-2,2,3,4,5,5-d6)-7-bromo-2-chloro-N-(furan-2-ylmethyl)thieno[3,2-d]pyrimidin-4-amine and 6-((1S,6S)-6-aminocyclohex-3-en-1-yl-2,2,3,4,5,5-d6)-7-bromo-2-chloro-N-(furan-2-ylmethyl)thieno[3,2-d]pyrimidin-4-amine [Compound 200]”, the IC50 (in experiment [1]; in the experiment on ATXN3 pre-mRNA) was at most 30 nM throughout.
In the case of “6-((1R,6R)-6-aminocyclohex-3-en-1-yl-2,2,3,4,5,5-d6)-7-bromo-2-chloro-N-(thiophen-2-ylmethyl)thieno[3,2-d]pyrimidin-4-amine [Compound 372]”, the IC50 (in experiment [1]; in the experiment on ATXN3 pre-mRNA) was 30 to 300 nM in each case.
In the case of “6-((1S,2S)-2-aminocyclohexyl)-2,7-dichloro-5-(difluoromethyl)-N-(furan-2-ylmethyl)-5H-pyrrolo[3,2-d]pyrimidin-4-amine and 6-((1R,2R)-2-aminocyclohexyl)-2,7-dichloro-5-(difluoromethyl)-N-(furan-2-ylmethyl)-5H-pyrrolo[3,2-d]pyrimidin-4-amine [Compound 334]”, the IC50 (in experiment [1]; in the experiment on ATXN3 pre-mRNA) was 30 to 300 nM throughout.
For the substance “6-((1S,2S)-2-aminocyclohexyl)-N-(but-2-yn-1-yl)-2-chloro-7-iodothieno[3,2-d]pyrimidin-4-amine [Compound 286]”, the IC50 (in experiment [1]; in the experiment with ATXN3 pre-mRNA) was 30 to 300 nM throughout.
Take “6-((1S,6S)-6-aminocyclohex-3-en-1-yl)-4-((furan-2-ylmethyl)amino)-7-methylthieno[3,2-d]pyrimidine-2-carbonitrile [Compound 282]”: the IC50 (in experiment [1]; in the experiment with ATXN3 pre-mRNA) was 30 to 300 nM in each case.
Consider “6-((1S,6S)-6-aminocyclohex-3-en-1-yl-2,2,3,4,5,5-d6)-7-bromo-2-chloro-N-(thiophen-2-ylmethyl)thieno[3,2-d]pyrimidin-4-amine [Compound 183]”, for which the IC50 (in experiment [1]; in the experiment with ATXN3 pre-mRNA) was at most 30 nM throughout.
For the substance “6-((2R,3R)-3-aminotetrahydro-2H-pyran-2-yl)-2-chloro-N-(furan-2-ylmethyl)-7-iodothieno[3,2-d]pyrimidin-4-amine and 6-((2S,3S)-3-aminotetrahydro-2H-pyran-2-yl)-2-chloro-N-(furan-2-ylmethyl)-7-iodothieno[3,2-d]pyrimidin-4-amine [Compound 243]”, the IC50 (in experiment [1]; in the experiment on ATXN3 pre-mRNA) was at most 30 nM in each case.
In the case of “6-((2S,3S)-3-aminotetrahydro-2H-pyran-2-yl)-7-bromo-2-chloro-5-(difluoromethyl)-N-(furan-2-ylmethyl)-5H-pyrrolo[3,2-d]pyrimidin-4-amine [Compound 215]”, the IC50 (in experiment [1]; in the experiment on ATXN3 pre-mRNA) was at most 30 nM throughout.
In the case of “6-((2S,3S)-3-aminotetrahydro-2H-pyran-2-yl)-N-benzyl-2,7-dichloro-5-(difluoromethyl)-5H-pyrrolo[3,2-d]pyrimidin-4-amine and 6-((2R,3R)-3-aminotetrahydro-2H-pyran-2-yl)-N-benzyl-2,7-dichloro-5-(difluoromethyl)-5H-pyrrolo[3,2-d]pyrimidin-4-amine [Compound 392]”, the IC50 in experiment [1] is 300 to 1000 nM; in the experiment on ATXN3 pre-mRNA it was 30 to 300 nM.
For “6-((3R,4S)-3-aminotetrahydro-2H-pyran-4-yl)-2,7-dichloro-N-(furan-2-ylmethyl)thieno[3,2-d]pyrimidin-4-amine and 6-((3S,4R)-3-aminotetrahydro-2H-pyran-4-yl)-2,7-dichloro-N-(furan-2-ylmethyl)thieno[3,2-d]pyrimidin-4-amine [Compound 354]” the same measures were 30 to 300 nM and 30 to 300 nM.
